Test results published in patent US7655429B2, “Immunoassays for topiramate” (Seradyn, Inc., priority 2004, dated 2010).

Tests used:
[1] = cited from earlier work
[2] = test system: anti-topiramate antibodies prepared with immunogen (17); assay: ELISA binding inhibition study (avidity), free topiramate versus coated antigen; design: species or system Rabbit
Procedure: ELISA plates for use in an ELISA assay are prepared in order to study the polyclonal antibody prepared as described in Example 21. As such, various topiramate antigens (16), (19), and (20) are coated on different ELISA plates before being subjected to the anti-topiramate antibody and competing free topiramate. More particularly, the topiramate antigens are diluted in coating buffer, and then added to the wells of ELISA plate. After the ELISA plate is incubated for 60 min at 37° C., the solvent in the coating buffer is decanted and a blocking buffer is added to the plate. The plate is incubated again for 60 min at 37° C., and the solvent in the blocking buffer is decanted from the plate. The ELISA plate is then stored with the blocking agent in the wells at 2-8° C. for up to 1 week. The avidity of the anti-topiramate antibodies prepared with immunogen (17) for topiramate analogs are determined by a binding inhibition study. As such, samples are prepared in 1 mL of PBS at pH 7.4 with 0.1% BSA. A composition having 30% Bmax titer or 50% Bmax titer is used to divide the obtained titer value into approximately half the titer value. Using 30% Bmax, an antibody titer of 1:10,000 is diluted to 1:5,000 during the sample preparation stage. About 50 μL of topiramate at different concentrations or calibrator values, (0, 2, 4, 8, 16, 32 μg/ml) are then applied to a plate as prepared in accordance with Example 22. About 50 μL of the diluted antibody is dispensed into the plate, and the compositions in the plate are mixed for 1 min on a horizontal plate shaker. The plate is characterized by a first row not containing topiramate or anti-topiramate antibody, wherein the first row is used as a negative control. A second row not containing topiramate is used as the positive control. The plate is incubated for 60 min, and washed three times with 250 μL of PBS at pH 7.4 with 0.05% tween. About 125 μL of a diluted second antibody conjugate such as antigens (16), (19), or (20), in PBS at pH 7.4 is added to each well of the plate. Titer is determined experimentally by the plate being incubated for 60 min at 37° C. and washed 3 times with 250 μL PBS, pH 7.4 with 0.05% tween. Subsequently, about 125 μL of ABTS substrate is added to each well of the plate and incubated for 20 min.

[3] = test system: sheep polyclonal antibodies that bind with topiramate prepared from immunogen (18); assay: QMS homogeneous particle-enhanced immunoturbidimetric assay; assay type: binding; conditions: Topiramate antigen (19) coated Latex, Polyclonal antibody R1
Procedure: An immunoturbidimetric or QMS® assay, which is a homogeneous particle-enhanced immunoturbidimetric experiment, is performed to test the polyclonal antibodies prepared as in Example 21. […] The assay procedure is initiated by diluting the specimen because the specimens with topiramate can be used to generate results that exceed the highest calibrator value. As such, the specimens may be diluted manually or by using an automated onboard dilution protocol. The assay is based on competition for topiramate-specific antibody binding sites between drug in the sample and drug coated onto a microparticle of topiramate-coated microparticle reagent is rapidly agglutinated in the presence of the anti-topiramate antibody reagent and in the absence of any competing drug of the sample. The rate of absorbance change is measured photometrically, and is directly proportional to the rate of agglutination of the particles. […] A concentration-dependent classic agglutination inhibition curve can be obtained, with maximum rate of agglutination at the lowest topiramate concentration (at zero μg/ml) and the lowest agglutination rate at the highest topiramate concentration (32 μg/ml). The QMS® topiramate assay is initiated after the being calibrated using a full calibration (6-point) procedure. The QMS® is performed as directed in operation manuals in accordance with the average skill of one in the art.

[4] = dose escalation add-on studies, morning serum
[5] = Antigen 16, Topiramate 2 μg/ml, Rabbit No. 5481
[6] = Antigen 16, Topiramate 2 μg/ml, Rabbit No. 5492
[7] = Antigen 16, Topiramate 4 μg/ml, Rabbit No. 5481
[8] = Antigen 16, Topiramate 4 μg/ml, Rabbit No. 5492
[9] = Antigen 16, Topiramate 8 μg/ml, Rabbit No. 5481
[10] = Antigen 16, Topiramate 8 μg/ml, Rabbit No. 5492
[11] = Antigen 16, Topiramate 16 μg/ml, Rabbit No. 5481
[12] = Antigen 16, Topiramate 16 μg/ml, Rabbit No. 5492
[13] = Antigen 16, Topiramate 32 μg/ml, Rabbit No. 5481
[14] = Antigen 16, Topiramate 32 μg/ml, Rabbit No. 5492
[15] = Antigen 19, Topiramate 2 μg/ml, Rabbit No. 5481
[16] = Antigen 19, Topiramate 2 μg/ml, Rabbit No. 5492
[17] = Antigen 19, Topiramate 4 μg/ml, Rabbit No. 5481
[18] = Antigen 19, Topiramate 4 μg/ml, Rabbit No. 5492
[19] = Antigen 19, Topiramate 8 μg/ml, Rabbit No. 5481
[20] = Antigen 19, Topiramate 8 μg/ml, Rabbit No. 5492
[21] = Antigen 19, Topiramate 16 μg/ml, Rabbit No. 5481
[22] = Antigen 19, Topiramate 16 μg/ml, Rabbit No. 5492
[23] = Antigen 19, Topiramate 32 μg/ml, Rabbit No. 5481
[24] = Antigen 19, Topiramate 32 μg/ml, Rabbit No. 5492
[25] = Antigen 20, Topiramate 2 μg/ml, Rabbit No. 5481
[26] = Antigen 20, Topiramate 2 μg/ml, Rabbit No. 5492
[27] = Antigen 20, Topiramate 4 μg/ml, Rabbit No. 5481
[28] = Antigen 20, Topiramate 4 μg/ml, Rabbit No. 5492
[29] = Antigen 20, Topiramate 8 μg/ml, Rabbit No. 5481
[30] = Antigen 20, Topiramate 8 μg/ml, Rabbit No. 5492
[31] = Antigen 20, Topiramate 16 μg/ml, Rabbit No. 5481
[32] = Antigen 20, Topiramate 16 μg/ml, Rabbit No. 5492
[33] = Antigen 20, Topiramate 32 μg/ml, Rabbit No. 5481
[34] = Antigen 20, Topiramate 32 μg/ml, Rabbit No. 5492

In the case of CC1(C)O[C@@H]2[C@@H](CO[C@@]3(COS(N)(=O)=O)OC(C)(C)O[C@@H]23)O1 [Topiramate, 2,3:4,5-di-O-isopropylidene-beta-D-fructopyranose sulfamate], the “serum concentration with reduction in seizure control” value [1, 4] is listed as “greater than 75 μmol/L”, the “serum concentration with significant increase in side effects” value [1, 4] is listed as > 60 µM and the systemic topiramate concentrations ([1]; patients receiving considerably higher doses, up to 2000 mg) is listed as ≤ 80 µmol/L. It also gave an Abs [2, 5] of 0.29, a B/Bo [2, 5] of 0.38 and an Abs [2, 6] of 0.25. It also gave a B/Bo [2, 6] of 0.56, an Abs [2, 7] of 0.26 and a B/Bo [2, 7] of 0.34. For the same compound, the Abs [2, 8] was 0.20, the B/Bo [2, 8] was 0.44 and the Abs [2, 9] was 0.18. For the same compound, the B/Bo [2, 9] was 0.24, the Abs [2, 10] was 0.15 and the B/Bo [2, 10] was 0.33. For the same compound, the Abs [2, 11] was 0.15, the B/Bo [2, 11] was 0.20 and the Abs [2, 12] was 0.13. It also gave a B/Bo [2, 12] of 0.29, an Abs [2, 13] of 0.11 and a B/Bo [2, 13] of 0.14. The Abs [2, 14] was 0.01, the B/Bo [2, 14] was 0.02 and the Abs [2, 15] was 0.33. For the same compound, the B/Bo [2, 15] was 0.40, the Abs [2, 16] was 0.31 and the B/Bo [2, 16] was 0.38. The Abs [2, 17] was 0.25, the B/Bo [2, 17] was 0.30 and the Abs [2, 18] was 0.23. For the same compound, the B/Bo [2, 18] was 0.28, the Abs [2, 19] was 0.20 and the B/Bo [2, 19] was 0.24. It also gave an Abs [2, 20] of 0.19, a B/Bo [2, 20] of 0.23 and an Abs [2, 21] of 0.18. The B/Bo [2, 21] was 0.22, the Abs [2, 22] was 0.17 and the B/Bo [2, 22] was 0.20. The Abs [2, 23] was 0.15, the B/Bo [2, 23] was 0.18 and the Abs [2, 24] was 0.15. It also gave a B/Bo [2, 24] of 0.18, an Abs [2, 25] of 0.32 and a B/Bo [2, 25] of 0.53. For the same compound, the Abs [2, 26] was 0.45, the B/Bo [2, 26] was 0.64 and the Abs [2, 27] was 0.30. The B/Bo [2, 27] was 0.50, the Abs [2, 28] was 0.41 and the B/Bo [2, 28] was 0.59. It also gave an Abs [2, 29] of 0.25, a B/Bo [2, 29] of 0.42 and an Abs [2, 30] of 0.38. For the same compound, the B/Bo [2, 30] was 0.54, the Abs [2, 31] was 0.22 and the B/Bo [2, 31] was 0.37. It also gave an Abs [2, 32] of 0.38, a B/Bo [2, 32] of 0.54 and an Abs [2, 33] of 0.18. For the same compound, the B/Bo [2, 33] was 0.30, the Abs [2, 34] was 0.28 and the B/Bo [2, 34] was 0.40. The “Rate (Delta Absorbance)” value ([3]; Topiramate 8 μg/ml sample) was 60, the “Rate (Delta Absorbance)” value ([3]; Topiramate 16 μg/ml sample) was 16 and the “Rate (Delta Absorbance)” value ([3]; Topiramate 32 μg/ml sample) was 4.
